# From patent publication US7250442B2, “Dihydroindol-2-one derivatives as steroid hormone nuclear receptor modulators” (Eli Lilly and Company, priority 2003, dated 2007)
# Target: T1, glucocorticoid receptor (Homo sapiens, UniProt P04150)
# T1 construct: host or cells: A549 human lung epithelial cells (sonicated cell extract)
# T1 sequence (P04150 1-777): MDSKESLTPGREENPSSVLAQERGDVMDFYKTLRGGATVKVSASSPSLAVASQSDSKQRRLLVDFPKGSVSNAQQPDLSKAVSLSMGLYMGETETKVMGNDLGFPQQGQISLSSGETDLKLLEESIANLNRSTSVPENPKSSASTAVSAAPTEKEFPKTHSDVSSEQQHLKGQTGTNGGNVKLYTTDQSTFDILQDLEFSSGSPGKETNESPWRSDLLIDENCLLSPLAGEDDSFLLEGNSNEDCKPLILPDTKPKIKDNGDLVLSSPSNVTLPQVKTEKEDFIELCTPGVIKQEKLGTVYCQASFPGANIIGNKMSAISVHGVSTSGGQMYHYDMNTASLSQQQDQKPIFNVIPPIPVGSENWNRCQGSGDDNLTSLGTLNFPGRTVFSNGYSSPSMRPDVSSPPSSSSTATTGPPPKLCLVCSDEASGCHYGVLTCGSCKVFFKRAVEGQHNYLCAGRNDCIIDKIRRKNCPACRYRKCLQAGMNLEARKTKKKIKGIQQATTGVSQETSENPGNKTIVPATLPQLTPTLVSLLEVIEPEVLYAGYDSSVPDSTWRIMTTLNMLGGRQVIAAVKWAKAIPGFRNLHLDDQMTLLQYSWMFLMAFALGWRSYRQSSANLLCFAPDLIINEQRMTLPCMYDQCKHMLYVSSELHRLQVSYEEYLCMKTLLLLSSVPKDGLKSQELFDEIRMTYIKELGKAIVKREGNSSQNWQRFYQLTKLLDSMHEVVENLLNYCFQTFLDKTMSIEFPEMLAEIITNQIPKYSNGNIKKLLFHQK
# Assay: Glucocorticoid Receptor Binding Assay ([3H]-dexamethasone displacement, A549 cell extract)
# Conditions: A549 human lung epithelial cell extract, 1.86 nM [3H]-dexamethasone; read-out: GR Ki
# In short: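 A549 cell extract (50-200 ug; buffer 50 mM Tris-HCl pH 7.2 with glycerol, NaCl, MgCl2, EDTA, 10 mM molybdate) incubated with 1.86 nM [3H]-dexamethasone and test compound, 16 h at 4 °C. Unbound ligand removed with dextran-coated charcoal; bound radioactivity counted. IC50 converted to Ki via Cheng-Prusoff.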
row,Ki [nM],SMILES
1,≤ 500,"Cc1cc(C2(c3cc(C)c(O)c(C)c3)C(=O)N(Cc3ccc(Br)cc3F)c3ccccc32)cc(C)c1O [Example 81, 1-(4-Bromo-2-fluoro-benzyl)-3,3-bis-(4-hydroxy-3,5-dimethyl-phenyl)-1,3-dihydro-indol-2-one]"
2,≤ 500,"Cc1cc(C2(c3cc(C)c(O)c(C)c3)C(=O)N(Cc3ccc(O)cc3)c3ccccc32)cc(C)c1O [Example 88, 1-(4-Hydroxy-benzyl)-3,3-bis-(4-hydroxy-3,5-dimethyl-phenyl)-1,3-dihydro-indol-2-one]"
3,≤ 1000,"Cc1nc(CN2C(=O)C(c3cc(C)c(O)c(C)c3)(c3cc(C)c(O)c(C)c3)c3ccccc32)cs1 [Example 89, 3,3-Bis-(4-hydroxy-3,5-dimethyl-phenyl)-1-(2-methyl-thiazol-4-ylmethyl)-1,3-dihydro-indol-2-one]"
4,≤ 10000,"Cc1ccc2c(c1)C(c1cc(C)c(O)c(C)c1)(c1cc(C)c(O)c(C)c1)C(=O)N2Cc1csc(C)n1 [Example 93, 3,3-Bis-(4-hydroxy-3,5-dimethyl-phenyl)-5-methyl-1-(2-methyl-thiazol-4-ylmethyl)-1,3-dihydro-indol-2-one]"
5,≤ 500,"Cc1cc(C2(c3cc(C)c(O)c(C)c3)C(=O)N(Cc3ccccn3)c3ccccc32)cc(C)c1O [Example 100, 3,3-Bis-(4-hydroxy-3,5-dimethyl-phenyl)-1-pyridin-2-ylmethyl-1,3-dihydro-indol-2-one]"
6,≤ 500,"Cc1cc(C2(c3cc(C)c(O)c(C)c3)C(=O)N(CC3CC3)c3ccccc32)cc(C)c1O [Example 105, 1-Cyclopropylmethyl-3,3-bis-(4-hydroxy-3,5-dimethyl-phenyl)-1,3-dihydro-indol-2-one]"
7,≤ 500,"Cc1cc(C2(c3cc(C)c(O)c(C)c3)C(=O)N(Cc3c(C)cccc3C)c3ccccc32)cc(C)c1O [Example 107, 1-(2,6-Dimethyl-benzyl)-3,3-bis-(4-hydroxy-3,5-dimethyl-phenyl)-1,3-dihydro-indol-2-one]"
8,≤ 500,"Cc1cc(C2(c3cc(C)c(O)c(C)c3)C(=O)N(Cc3cc(C(F)(F)F)ccc3F)c3ccccc32)cc(C)c1O [Example 112, 1-(2-Fluoro-5-trifluoromethyl-benzyl)-3,3-bis-(4-hydroxy-3,5-dimethyl-phenyl)-1,3-dihydro-indol-2-one]"
9,≤ 500,"Cc1cc(C2(c3cc(C)c(O)c(C)c3)C(=O)N(C3CCCC3)c3ccccc32)cc(C)c1O [Example 114, 1-Cyclopentyl-3,3-bis-(4-hydroxy-3,5-dimethyl-phenyl)-1,3-dihydro-indol-2-one]"
10,≤ 500,"Cc1cc(C2(c3cc(C)c(O)c(C)c3)C(=O)N(Cc3ccc(N)cc3)c3ccccc32)cc(C)c1O [Example 117, 11-(4-Amino-benzyl)-3,3-bis-(4-hydroxy-3,5-dimethyl-phenyl)-1,3-dihydro-indol-2-one]"
11,≤ 500,"Cc1cc(C2(c3cc(C)c(O)c(C)c3)C(=O)N(Cc3cccc(N)c3)c3ccccc32)cc(C)c1O [Example 118, 1-(3-Amino-benzyl)-3,3-bis-(4-hydroxy-3,5-dimethyl-phenyl)-1,3-dihydro-indol-2-one]"
12,≤ 500,"Cc1cc(C2(c3cc(C)c(O)c(C)c3)C(=O)N(CCc3scnc3C)c3ccccc32)cc(C)c1O [Example 121, 3,3-Bis-(4-hydroxy-3,5-dimethyl-phenyl)-1-[2-(4-methyl-thiazol-5-yl)-ethyl]-1,3-dihydro-indol-2-one]"
13,≤ 500,"COc1ccc(N2C(=O)C(c3cc(C)c(O)c(C)c3)(c3cc(C)c(O)c(C)c3)c3ccccc32)cc1 [Example 128, 3,3-Bis-(4-hydroxy-3,5-dimethyl-phenyl)-1-(4-methoxy-phenyl)-1,3-dihydro-indol-2-one]"
14,≤ 500,"COc1cccc(N2C(=O)C(c3cc(C)c(O)c(C)c3)(c3cc(C)c(O)c(C)c3)c3ccccc32)c1 [Example 134, 3,3-Bis-(4-hydroxy-3,5-dimethyl-phenyl)-1-(3-methoxy-phenyl)-1,3-dihydro-indol-2-one]"
15,≤ 500,"Cc1cc(C2(c3cc(C)c(O)c(C)c3)C(=O)N(c3cccnc3)c3ccccc32)cc(C)c1O [Example 135, 3,3-Bis-(4-hydroxy-3,5-dimethyl-phenyl)-1-pyridin-3-yl-1,3-dihydro-indol-2-one]"
16,≤ 500,"Cc1cc(C2(c3cc(C)c(O)c(C)c3)C(=O)N(c3cccc(Br)c3)c3ccccc32)cc(C)c1O [Example 139, 1-(3-Bromo-phenyl)-3,3-bis-(4-hydroxy-3,5-dimethyl-phenyl)-1,3-dihydro-indol-2-one]"

# Further lines, the compound ahead of its results:
row,SMILES,Ki [nM]
1,Cc1cc(C2(c3cc(C)c(O)c(C)c3)C(=O)N(Cc3ccc(F)cc3)c3ccccc32)cc(C)c1O [Example 2],≤ 500
2,"Cc1cc(C2(c3cc(C)c(O)c(C)c3)C(=O)N(Cc3ccc(C(C)(C)C)cc3)c3ccccc32)cc(C)c1O [Example 7, 1-(4-tert-Butyl-benzyl)-3,3-bis-(4-hydroxy-3,5-dimethyl-phenyl)-1,3-dihydro-indol-2-one]",≤ 1000
3,"Cc1cc(C2(c3cc(C)c(O)c(C)c3)C(=O)N(Cc3cccc4ccccc34)c3ccccc32)cc(C)c1O [Example 10, 3,3-Bis-(4-hydroxy-3,5-dimethyl-phenyl)-1-naphthalen-1-ylmethyl-1,3-dihydro-indol-2-one]",≤ 10000
4,"COc1ccc2c(c1)C(c1cc(C)c(O)c(C)c1)(c1cc(C)c(O)c(C)c1)C(=O)N2Cc1ccccc1 [Example 16, 1-Benzyl-3,3-bis-(4-hydroxy-3,5-dimethyl-phenyl)-5-methoxy-1,3-dihydro-indol-2-one]",≤ 500
5,"Cc1cc(C2(c3ccc(O)cc3)C(=O)N(Cc3ccccc3)c3ccccc32)cc(C)c1O (stereo not shown) [Example 29, 1-Benzyl-3-(4-hydroxy-3,5-dimethyl-phenyl)-3-(4-hydroxy-phenyl)-1,3-dihydro-indol-2-one]",≤ 500
6,"COc1ccccc1C(=O)CN1C(=O)C(c2cc(C)c(O)c(C)c2)(c2cc(C)c(O)c(C)c2)c2ccccc21 [Example 44, 3,3-Bis-(4-hydroxy-3,5-dimethyl-phenyl)-1-[2-(2-methoxy-phenyl)-2-oxo-ethyl]-1,3-dihydro-indol-2-one]",≤ 500
7,"COc1cccc(C(=O)CN2C(=O)C(c3cc(C)c(O)c(C)c3)(c3cc(C)c(O)c(C)c3)c3ccccc32)c1 [Example 45, 3,3-Bis-(4-hydroxy-3,5-dimethyl-phenyl)-1-[2-(3-methoxy-phenyl)-2-oxo-ethyl]-1,3-dihydro-indol-2-one]",≤ 500
8,"COc1ccc(C(=O)CN2C(=O)C(c3cc(C)c(O)c(C)c3)(c3cc(C)c(O)c(C)c3)c3ccccc32)cc1 [Example 46, 3,3-Bis-(4-hydroxy-3,5-dimethyl-phenyl)-1-[2-(4-methoxy-phenyl)-2-oxo-ethyl]-1,3-dihydro-indol-2-one]",≤ 500
9,"COc1ccc(OC)c(C(=O)CN2C(=O)C(c3cc(C)c(O)c(C)c3)(c3cc(C)c(O)c(C)c3)c3ccccc32)c1 [Example 49, 1-[2-(2,5-Dimethoxy-phenyl)-2-oxo-ethyl]-3,3-bis-(4-hydroxy-3,5-dimethyl-phenyl)-1,3-dihydro-indol-2-one]",≤ 500
10,"Cc1cc(C2(c3cc(C)c(O)c(C)c3)C(=O)N(Cc3ccccc3C#N)c3ccccc32)cc(C)c1O [Example 51, 2-[3,3-Bis-(4-hydroxy-3,5-dimethyl-phenyl)-2-oxo-2,3-dihydro-indol-1-ylmethyl]-benzonitrile]",≤ 500
11,"Cc1cc(C2(c3cc(C)c(O)c(C)c3)C(=O)N(Cc3ccc(Cl)c(Cl)c3)c3ccccc32)cc(C)c1O [Example 52, 1-(3,4-Dichloro-benzyl)-3,3-bis-(4-hydroxy-3,5-dimethyl-phenyl)-1,3-dihydro-indol-2-one]",≤ 500
12,"COC(=O)c1cccc(CN2C(=O)C(c3cc(C)c(O)c(C)c3)(c3cc(C)c(O)c(C)c3)c3ccccc32)c1 [Example 55, 3-[3,3-Bis-(4-hydroxy-3,5-dimethyl-phenyl)-2-oxo-2,3-dihydro-indol-1-ylmethyl]-benzoic acid methyl ester]",≤ 500
13,"Cc1cc(C2(c3cc(C)c(O)c(C)c3)C(=O)N(Cc3ccc(C(F)(F)F)cc3)c3ccccc32)cc(C)c1O [Example 57, 3,3-Bis-(4-hydroxy-3,5-dimethyl-phenyl)-1-(4-trifluoromethyl-benzyl)-1,3-dihydro-indol-2-one]",≤ 500
14,"Cc1cc(C2(c3cc(C)c(O)c(C)c3)C(=O)N(Cc3cccc(Cl)c3)c3ccccc32)cc(C)c1O [Example 60, 1-(3-Chloro-benzyl)-3,3-bis-(4-hydroxy-3,5-dimethyl-phenyl)-1,3-dihydro-indol-2-one]",≤ 500
15,"Cc1cc(C2(c3cc(C)c(O)c(C)c3)C(=O)N(Cc3cccc(C(F)(F)F)c3)c3ccccc32)cc(C)c1O [Example 61, 3,3-Bis-(4-hydroxy-3,5-dimethyl-phenyl)-1-(3-trifluoromethyl-benzyl)-1,3-dihydro-indol-2-one]",≤ 500
